# Results taken from PMC10888562 (International Journal of Molecular Sciences, 2024).
# “And” between values parts separate entries of the source, which are not always exact repeats. Equal values may be shown once.
# Tested on: HT29 colon cells
# Assay: TMRE mitochondrial membrane potential (MtMP) assay
# Format: cell-based, human
# Conditions: 24 h, GI50 drug concentration (FCCP 20 μM), control 542 ± 4
# Description: This was achieved by determining if the overproduction of ROS induced by these complexes impacts mitochondrial activity by altering MtMP. Briefly, there is evidence showing a strong correlation between increased levels of ROS and mitochondrial impairment. […] The MtMP changes recorded are measured as RFU. […] To investigate the MtMP changes in HT29 treated cells, a TMRE-MtMP Assay Kit (Abcam, Cambridge, MA, USA) was used, as previously described. In 96-well plates, 25,000 cells/mL of HT29 colon cells in DMEM were seeded. Cells were treated with a GI50 drug concentration for each complex. At 24, 48 or 72 h, cells were washed with PBS and stained with tetramethylrhodamine, ethyl ester (TMRE) (1 μM) and incubated for 30 min. TMRE was then removed, and cells were then re-washed with PBS (0.2% BSA), after which phenol red free media was added. The plates were directly scanned to measure fluorescence (expressed as RFU), using the Glo-Max®-Multimode microplate reader (Promega Corporation, Alexandra, VIC, Australia) at an excitation/emission of 549/575 nm. For the positive control, 20 μM carbonyl cyanide 4-(trifluoromethoxy) phenylhydrazone (FCCP)) was added to the cells and incubated for 10 min. The cells were washed with PBS (0.2% BSA) and stained with TMRE (1 μM) for 30 min; this was removed, and phenol red free media was added, and the final solution was scanned as mentioned above.
row,Compound,MtMP Changes [RFU]
1,"Cc1cc2cccnc2c2ncccc12.N[C@H]1CCCC[C@@H]1N.[Pt+2] [5MESS, [Pt^II(5-Mephen)(SS-DACH)]^2+]",283 ± 4
2,"N#CC(C#N)=NNc1ccc(OC(F)(F)F)cc1 [FCCP, carbonyl cyanide 4-(trifluoromethoxy) phenylhydrazone]",234 ± 3

# Same assay, conditions: 48 h, GI50 drug concentration (FCCP 20 μM), control 507 ± 11
row,Compound,MtMP Changes [RFU]
1,"Cc1cc2cccnc2c2ncccc12.N[C@H]1CCCC[C@@H]1N.[Pt+2] [5MESS, [Pt^II(5-Mephen)(SS-DACH)]^2+]",261 ± 9
2,"N#CC(C#N)=NNc1ccc(OC(F)(F)F)cc1 [FCCP, carbonyl cyanide 4-(trifluoromethoxy) phenylhydrazone]",151 ± 7

# Same assay, conditions: 72 h, GI50 drug concentration (FCCP 20 μM), control 449 ± 10
row,Compound,MtMP Changes [RFU]
1,"Cc1cc2cccnc2c2ncccc12.N[C@H]1CCCC[C@@H]1N.[Pt+2] [5MESS, [Pt^II(5-Mephen)(SS-DACH)]^2+]",189 ± 11
2,"N#CC(C#N)=NNc1ccc(OC(F)(F)F)cc1 [FCCP, carbonyl cyanide 4-(trifluoromethoxy) phenylhydrazone]",84 ± 5

# Tested on: histone deacetylase (HDAC)
# Assay: Fluorometric HDAC activity assay on extracts of treated HT29 cells
# Format: cell-based, human
# Conditions: HT29 colon cells treated 72 h at GI50 concentration; lower RFU = decline in HDAC activity; HT29 extract control 5154 ± 40
# Description: All values are expressed as RFU.
# To study the HDAC activity in HT29 treated cells, a Fluorometric HDAC Activity Assay Kit ab156064 (Abcam, Cambridge, MA, USA) was used and all sample preparations were made based on the manufacturer’s protocol. A total of 10^6 cells/mL of HT29 cells were seeded in DMEM with serum deprivation for 18 h to synchronise the cells. […] Cells were then washed with cold PBS and resuspended in lysis buffer (10 mM Tris HCl (pH 7.5), 10 mM NaCl, 15 mM MgCl2, 250 mM sucrose, 0.5% NP-40 and 0.1 mM EGTA) and lysed on ice for 20 min. Cells were centrifuged through 4 mL of sucrose cushion (30% sucrose, 10mM Tris HCl (pH 7.5), 10 mM NaCl and 3mM MgCl2) at 1300× g for 10 min at 4 °C. Supernatant was discarded and the pellet was washed and resuspended in extraction buffer (50 mM HEPES-KOH (pH 7.5), 420 mM NaCl, 0.5 mM EDTA 2Na, 0.1 mM EGTA and 10% glycerol) and then sonicated for 30 s. Nuclei were lysed for 30 min on ice and centrifuged at 20,000× g for 30 min. The supernatant was collected, and the samples were prepared for the fluorometric assay according to the manufacturer’s protocol (Histone Deacetylase (HDAC) Activity Assay Fluorometric Kit ab156064, Abcam). The changes in the relative fluorescence intensity (expressed as RFU) were recorded each minute over 60 min using the Glo-Max®-Multimode microplate reader (Promega Corporation, Alexandra, VIC, Australia) at an excitation/emission of 355/460 nm.
row,Compound,HDAC Inhibition at 72 h
1,"Cc1cc2cccnc2c2ncccc12.N[C@H]1CCCC[C@@H]1N.[Pt+2] [5MESS, [Pt^II(5-Mephen)(SS-DACH)]^2+]",2124 RFU and 2124 ± 21 RFU

# Tested on: HT29 colon
# Assay: not given
# Set-up: method as in PMID 36142383, PMID 37173934, PMID 36296713
# Conditions: cited from earlier work
row,Compound,GI50 [nM]
1,"Cc1cc2cccnc2c2ncccc12.N[C@H]1CCCC[C@@H]1N.[Pt+2] [5MESS, [Pt^II(5-Mephen)(SS-DACH)]^2+]",33 ± 4

# Tested on: U87 glioblastoma
# Assay: not given
# Set-up: method as in PMID 36142383, PMID 37173934, PMID 36296713
# Conditions: cited from earlier work
row,Compound,GI50 [nM]
1,"Cc1cc2cccnc2c2ncccc12.N[C@H]1CCCC[C@@H]1N.[Pt+2] [5MESS, [Pt^II(5-Mephen)(SS-DACH)]^2+]",320 ± 26

# Tested on: H460 lung
# Assay: not given
# Set-up: method as in PMID 36142383, PMID 37173934, PMID 36296713
# Conditions: cited from earlier work
row,Compound,GI50 [nM]
1,"Cc1cc2cccnc2c2ncccc12.N[C@H]1CCCC[C@@H]1N.[Pt+2] [5MESS, [Pt^II(5-Mephen)(SS-DACH)]^2+]",41 ± 5

# Tested on: A431 skin
# Assay: not given
# Set-up: method as in PMID 36142383, PMID 37173934, PMID 36296713
# Conditions: cited from earlier work
row,Compound,GI50 [nM]
1,"Cc1cc2cccnc2c2ncccc12.N[C@H]1CCCC[C@@H]1N.[Pt+2] [5MESS, [Pt^II(5-Mephen)(SS-DACH)]^2+]",120 ± 25

# Tested on: Du145 prostate
# Assay: not given
# Set-up: method as in PMID 36142383, PMID 37173934, PMID 36296713
# Conditions: cited from earlier work
row,Compound,GI50 [nM]
1,"Cc1cc2cccnc2c2ncccc12.N[C@H]1CCCC[C@@H]1N.[Pt+2] [5MESS, [Pt^II(5-Mephen)(SS-DACH)]^2+]",22 ± 3

# Tested on: BE2-C neuroblastoma
# Assay: not given
# Set-up: method as in PMID 36142383, PMID 37173934, PMID 36296713
# Conditions: cited from earlier work
row,Compound,GI50 [nM]
1,"Cc1cc2cccnc2c2ncccc12.N[C@H]1CCCC[C@@H]1N.[Pt+2] [5MESS, [Pt^II(5-Mephen)(SS-DACH)]^2+]",270 ± 38

# Tested on: SJ-G2 glioblastoma
# Assay: not given
# Set-up: method as in PMID 36142383, PMID 37173934, PMID 36296713
# Conditions: cited from earlier work
row,Compound,GI50 [nM]
1,"Cc1cc2cccnc2c2ncccc12.N[C@H]1CCCC[C@@H]1N.[Pt+2] [5MESS, [Pt^II(5-Mephen)(SS-DACH)]^2+]",220 ± 10

# Tested on: MIA pancreas
# Assay: not given
# Set-up: method as in PMID 36142383, PMID 37173934, PMID 36296713
# Conditions: cited from earlier work
row,Compound,GI50 [nM]
1,"Cc1cc2cccnc2c2ncccc12.N[C@H]1CCCC[C@@H]1N.[Pt+2] [5MESS, [Pt^II(5-Mephen)(SS-DACH)]^2+]",48 ± 2

# Tested on: A2780 ovarian
# Assay: not given
# Set-up: method as in PMID 36142383, PMID 37173934, PMID 36296713
# Conditions: cited from earlier work
row,Compound,GI50 [nM]
1,"Cc1cc2cccnc2c2ncccc12.N[C@H]1CCCC[C@@H]1N.[Pt+2] [5MESS, [Pt^II(5-Mephen)(SS-DACH)]^2+]",61 ± 10

# Tested on: cisplatin-resistant ADDP ovarian variant
# Assay: not given
# Set-up: method as in PMID 36142383, PMID 37173934, PMID 36296713
# Conditions: cited from earlier work
row,Compound,GI50 [nM]
1,"Cc1cc2cccnc2c2ncccc12.N[C@H]1CCCC[C@@H]1N.[Pt+2] [5MESS, [Pt^II(5-Mephen)(SS-DACH)]^2+]",34 ± 2

# Tested on: MCF-7 breast
# Assay: not given
# Set-up: method as in PMID 36142383, PMID 37173934, PMID 36296713
# Conditions: cited from earlier work
row,Compound,GI50 [nM]
1,"Cc1cc2cccnc2c2ncccc12.N[C@H]1CCCC[C@@H]1N.[Pt+2] [5MESS, [Pt^II(5-Mephen)(SS-DACH)]^2+]",200 ± 12

# Tested on: non-tumour-derived MCF10A breast line
# Assay: not given
# Set-up: method as in PMID 36142383, PMID 37173934, PMID 36296713
# Conditions: cited from earlier work
row,Compound,GI50 [nM]
1,"Cc1cc2cccnc2c2ncccc12.N[C@H]1CCCC[C@@H]1N.[Pt+2] [5MESS, [Pt^II(5-Mephen)(SS-DACH)]^2+]",30 ± 2

# Tested on: multiple human cell lines
# Assay: not given
# Set-up: method as in PMID 36142383, PMID 37173934, PMID 36296713
# Conditions: average over all cell lines; cited from earlier work
row,Compound,GI50 [nM]
1,"Cc1cc2cccnc2c2ncccc12.N[C@H]1CCCC[C@@H]1N.[Pt+2] [5MESS, [Pt^II(5-Mephen)(SS-DACH)]^2+]",117 ± 12

# Tested on: HT29 colon cells
# Assay: not given
# Set-up: method as in PMID 36142383, PMID 37173934, PMID 36296713
# Conditions: 24 h; cited from earlier work
row,Compound,ROS Production [RFU]
1,"Cc1cc2cccnc2c2ncccc12.N[C@H]1CCCC[C@@H]1N.[Pt+2] [5MESS, [Pt^II(5-Mephen)(SS-DACH)]^2+]",204 ± 4

# Same assay, conditions: 48 h; cited from earlier work
row,Compound,ROS Production [RFU]
1,"Cc1cc2cccnc2c2ncccc12.N[C@H]1CCCC[C@@H]1N.[Pt+2] [5MESS, [Pt^II(5-Mephen)(SS-DACH)]^2+]",205 ± 3

# Same assay, conditions: 72 h; cited from earlier work
row,Compound,ROS Production [RFU]
1,"Cc1cc2cccnc2c2ncccc12.N[C@H]1CCCC[C@@H]1N.[Pt+2] [5MESS, [Pt^II(5-Mephen)(SS-DACH)]^2+]",188 ± 3
